Reference: ChEMBL document CHEMBL3885861, “Open TG-GATES”

Species on record: Rattus norvegicus
Test: Open TG-GATES - Regimen: Single
Type: toxicity, organism-based, Sprague-Dawley
Set-up: regimen Single, gender Male, age 6 weeks
Settings: in vivo, po, 10 mg/kg, route gavage, dose level Middle; for APTT / Bas / Eos / Fbg / Hb / Ht / Lym / MCH / MCHC / MCV / Mono / Neu / PT / Plat / RBC / Ret / WBC: tissue Blood; for KIDNEY_L / KIDNEY_R / KIDNEY_TOTAL: tissue Kidney; for LIVER: tissue Liver; for A/G / ALP / ALT / AST / BUN / CRE / Ca / Cl / DBIL / GLC / IP / K / LDH / Na / PL / RALB / TBIL / TC / TG / TP / gamma-GTP: tissue Plasma

## C=CCO [ALLYL ALCOHOL]
3 h
  TERMINAL_BW: 220.3 g
  APTT: 20.3 s
  Bas: 0%
  Eos: 1%
  Fbg: 217.8 mg/dL
  Hb: 13.7 g/dL
  Ht: 39.5%
  Lym: 79.4%
  MCH: 21.3 pg
  MCHC: 34.9%
  MCV: 61 fL
  Mono: 2.8%
  Neu: 16.8%
  PT: 12.5 s
  Plat: 140.4 x10_4/uL
  RBC: 648.2 x10_4/ul
  Ret: 6.3%
  WBC: 94.5 x10_2/uL
  KIDNEY_L: 1 g
  KIDNEY_R: 1 g
  KIDNEY_TOTAL: 2 g
  LIVER: 9.9 g
  A/G: 1.5
  ALP: 1147.4 IU/L
  ALT: 37.6 IU/L
  AST: 69.6 IU/L
  BUN: 10.2 mg/dL
  CRE: 0.4 mg/dL
  Ca: 10.6 mg/dL
  Cl: 100.2 meq/L
  DBIL: 0.3 mg/dL
  GLC: 197.8 mg/dL
  IP: 8.6 mg/dL
  K: 3.7 meq/L
  LDH: 209.2 IU/L
  Na: 139.4 meq/L
  PL: 170.4 mg/dL
  RALB: 3.4 g/dL
  TBIL: 0.4 mg/dL
  TC: 77 mg/dL
  TG: 204.8 mg/dL
  TP: 5.6 g/dL
  gamma-GTP: 1 IU/L
6 h
  TERMINAL_BW: 220.1 g
  APTT: 19.1 s
  Bas: 0%
  Eos: 1%
  Fbg: 226.8 mg/dL
  Hb: 13.2 g/dL
  Ht: 38.1%
  Lym: 76%
  MCH: 22 pg
  MCHC: 34.5%
  MCV: 63.7 fL
  Mono: 3.2%
  Neu: 19.2%
  PT: 12.1 s
  Plat: 132 x10_4/uL
  RBC: 598 x10_4/ul
  Ret: 7.1%
  WBC: 99.4 x10_2/uL
  KIDNEY_L: 1 g
  KIDNEY_R: 1 g
  KIDNEY_TOTAL: 1.9 g
  LIVER: 9.8 g
  A/G: 1.4
  ALP: 1136.8 IU/L
  ALT: 35 IU/L
  AST: 74 IU/L
  BUN: 8 mg/dL
  CRE: 0.4 mg/dL
  Ca: 10.7 mg/dL
  Cl: 102.4 meq/L
  DBIL: 0.2 mg/dL
  GLC: 200.2 mg/dL
  IP: 9.1 mg/dL
  K: 3.8 meq/L
  LDH: 221.4 IU/L
  Na: 141.2 meq/L
  PL: 164.2 mg/dL
  RALB: 3.2 g/dL
  TBIL: 0.2 mg/dL
  TC: 77.8 mg/dL
  TG: 114.4 mg/dL
  TP: 5.5 g/dL
  gamma-GTP: 1.2 IU/L
9 h
  TERMINAL_BW: 215.5 g
  APTT: 18 s
  Bas: 0%
  Eos: 1%
  Fbg: 217 mg/dL
  Hb: 13.3 g/dL
  Ht: 38.6%
  Lym: 80.4%
  MCH: 21.5 pg
  MCHC: 34.4%
  MCV: 62.6 fL
  Mono: 2.2%
  Neu: 16.2%
  PT: 12.3 s
  Plat: 125.1 x10_4/uL
  RBC: 617.6 x10_4/ul
  Ret: 6.5%
  WBC: 74.3 x10_2/uL
  KIDNEY_L: 0.9 g
  KIDNEY_R: 0.9 g
  KIDNEY_TOTAL: 1.9 g
  LIVER: 8.9 g
  A/G: 1.5
  ALP: 1058 IU/L
  ALT: 29 IU/L
  AST: 62 IU/L
  BUN: 9.2 mg/dL
  CRE: 0.3 mg/dL
  Ca: 10.5 mg/dL
  Cl: 101.8 meq/L
  DBIL: 0.07 mg/dL
  GLC: 203.8 mg/dL
  IP: 10.3 mg/dL
  K: 3.8 meq/L
  LDH: 163.4 IU/L
  Na: 140 meq/L
  PL: 132.6 mg/dL
  RALB: 3.3 g/dL
  TBIL: 0.1 mg/dL
  TC: 67 mg/dL
  TG: 60.6 mg/dL
  TP: 5.5 g/dL
  gamma-GTP: 0.8 IU/L
24 h
  TERMINAL_BW: 231.2 g
  APTT: 17.9 s
  Bas: 0%
  Eos: 1%
  Fbg: 232.2 mg/dL
  Hb: 13.5 g/dL
  Ht: 39.7%
  Lym: 79.2%
  MCH: 20.8 pg
  MCHC: 34%
  MCV: 61 fL
  Mono: 2.8%
  Neu: 16.6%
  PT: 11.9 s
  Plat: 127.4 x10_4/uL
  RBC: 650.8 x10_4/ul
  Ret: 6%
  WBC: 93.9 x10_2/uL
  KIDNEY_L: 1 g
  KIDNEY_R: 1 g
  KIDNEY_TOTAL: 1.9 g
  LIVER: 11.1 g
  A/G: 1.3
  ALP: 1042.2 IU/L
  ALT: 38.2 IU/L
  AST: 65 IU/L
  BUN: 15 mg/dL
  CRE: 0.4 mg/dL
  Ca: 10.8 mg/dL
  Cl: 102.4 meq/L
  DBIL: 0.08 mg/dL
  GLC: 203.6 mg/dL
  IP: 7.2 mg/dL
  K: 3.8 meq/L
  LDH: 200.4 IU/L
  Na: 140.2 meq/L
  PL: 152.6 mg/dL
  RALB: 3.1 g/dL
  TBIL: 0.1 mg/dL
  TC: 79.4 mg/dL
  TG: 99.4 mg/dL
  TP: 5.5 g/dL
  gamma-GTP: 1 IU/L
